According to patent US20240150356A1, “Pyrimidine amide compounds and use thereof” (ALPHALA CO., LTD., priority 2019, published 2024):

Test system: Hep3B cells (hepatocellular carcinoma cell line)
Test: In vitro MTS cell viability assay (NCI-60 methodology), Hep3B
Format: cell-based
Conditions: Homo sapiens, 48 h, Table 1, MTS, 2 days drug incubation, 50% reduction vs time zero, read-out: Hep3B LC50
Outline: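 Hep3B cells given five 2-fold dilutions of compound for 2 days, with viability by MTS measured at time zero and at end. LC50 is the concentration giving a 50% fall in viable cells relative to the start of treatment, per NCI-60 formula.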

Row | SMILES | LC50 [nM]
1 | COc1ccc(/C=C/c2nc(NC(=O)c3ccc([N+](=O)[O-])s3)c3cnn(C)c3n2)cc1 [Compound 1-12, (E)-N-(6-(4-methoxystyryl)-1-methy-1H-pyrazolo[3,4-d]pyrimidin-4-yl)-5-nitrothiophene-2-carboxamide] | > 5000
2 | CC(C)(C)n1ncc2c(NC(=O)c3ccc([N+](=O)[O-])s3)nc(-c3ccc(C(F)(F)F)cc3)nc21 [Compound 1-26, N-(1-(tert-butyl)-6-(4-(trifluoromethyl)phenyl)-1H-pyrazolo[3,4,d]pyrimidin-4-yl)-5-nitrothiophene-2-carboxamide] | 790
3 | O=C(Nc1nc(-c2ccc(OC(F)(F)F)cc2)nc2c1cnn2CCO)c1ccc([N+](=O)[O-])s1 [Compound 1-28, N-(1-(2-hydroxyethyl)-6-(4-(trifluoromethoxy)phenyl)-1H-pyrazolo[3,4-d]pyrimidin-4-yl)-5-nitrothiophene-2-carboxamide] | 4030

Same assay, conditions: Homo sapiens, 48 h, Table 2, MTS, 2 days drug incubation, 50% reduction vs time zero, read-out: Hep3B LC50

Row | SMILES | LC50 [nM]
4 | Cn1ncc2c(-c3ccc(C(C)(C)C)cc3)nc(NC(=O)c3ccc([N+](=O)[O-])s3)nc21 [Compound 2-1, N-(4-(4-(tert-but)phenyl)-1-methyl-1H-pyrazolo[3,4-d]pyrimidin-6-yl)-5-nitrothiophene-2-carboxamide] | 3130

Same assay, conditions: Homo sapiens, 48 h, Table 3, MTS, 2 days drug incubation, 50% reduction vs time zero, read-out: Hep3B LC50

Row | SMILES | LC50 [nM]
5 | Cc1nn(C)c2c(NC(=O)c3ccc([N+](=O)[O-])s3)nc(-c3ccc(OC(F)(F)F)cc3)nc12 [Compound 3-3, N-(1,3-dimethyl-5-(4-(trifluoromethoxy)phenyl)-1H-pyrazolo[4,3-d]pyrimidin-7-yl)-5-nitrothiophene-2-carboxamide] | 1920
6 | Cc1nn(C)c2c(NC(=O)c3ccc([N+](=O)[O-])s3)nc(-c3ccc(C(F)(F)F)cc3)nc12 [Compound 3-1, N-(1,3-dimethyl-5-(4-(trifluoromethyl)phenyl)-1H-pyrazolo[4,3-d]pyrimidin-7-yl)-5-nitrothiophene-2-carboxamide] | 2220

Same assay, conditions: Homo sapiens, 48 h, Table 4, MTS, 2 days drug incubation, 50% reduction vs time zero, read-out: Hep3B LC50

Row | SMILES | LC50 [nM]
7 | Cc1csc2c(NC(=O)c3ccc([N+](=O)[O-])s3)nc(-c3cccc(C(F)(F)F)c3)nc12 [Compound 4-3, N-(7-methyl-2-(3-(trifluoromethyl)phenyl)thieno[3,2-1]pyrimidin-4-yl)-5-nitrothiophene-2-carboxamide] | 880
8 | Cc1csc2c(NC(=O)c3ccc([N+](=O)[O-])s3)nc(-c3cc(C(F)(F)F)ccc3F)nc12 [Compound 4-13, N-(2-(2-fluoro-5-(trifluoromethyl)phenyl)-7-methylthieno[3,2-d]pyrimidin-4-yl)-5-nitrothiophene-2-carboxamide] | 1700
9 | O=C(Nc1nc(-c2ccc(Cl)c(F)c2)nc2c(-c3ccccc3)csc12)c1ccc([N+](=O)[O-])s1 [Compound 4-16, N-(2-(4-chloro-3-fluorophenyl)-7-phenylthieno[3,2-d]pyrimidin-4-yl)-5-nitrothiophene-2-carboxamide] | 560
10 | Cc1csc2c(NC(=O)c3ccc([N+](=O)[O-])s3)nc(-c3cc(F)c(F)c(F)c3)nc12 [Compound 4-9, N-(7-methyl-2-(3,4,5-trifluorophenyl)thieno[3,2-d]pyrimidin-4-yl)-5-nitrothiophene-2-carboxamide] | > 10000

Same assay, conditions: Homo sapiens, 48 h, Table 5, MTS, 2 days drug incubation, 50% reduction vs time zero, read-out: Hep3B LC50

Row | SMILES | LC50 [nM]
11 | O=C(Nc1nc(Sc2ccccc2)nc2c1cnn2-c1ccccc1)c1ccc([N+](=O)[O-])s1 [Compound 5-15, 5-nitro-N-(1-phenyl-6-(phenylthio)-1H-pyrazolo[3,4-d]pyrimidin-4-yl)thiophene-2-carboxamide] | > 5000
12 | O=C(Nc1nc(-c2cc(F)c(F)c(F)c2)nc2c1cnn2-c1ccccc1)c1ccc([N+](=O)[O-])s1 [Compound 5-53, 5-nitro-N-(1-phenyl-6-(3,4,5-trifluorophenyl)-1H-pyrazolo[3,4-d]pyrimidin-4-yl)thiophene-2-carboxamide] | > 1250
13 | COc1ccc(-c2nc(NC(=O)c3ccc([N+](=O)[O-])s3)c3cnn(-c4ccccc4)c3n2)cc1 [Compound 5-36, N-(6-(4-methoxyphenyl)-1-phenyl-1H-pyrazolo[3,4-d]pyrimidin-4-yl)-5-nitrothiophene-2-carboxamide] | 600
14 | CCOCCOCCOc1ccc(-c2nc(NC(=O)c3ccc([N+](=O)[O-])s3)c3cnn(-c4ccccc4)c3n2)cn1 [Compound 5-57, N-(6-(6-(2-(2-ethoxyethoxy)ethoxy)pyridin-3-yl)-1-phenyl-1H-pyrazolo[3,4-d]pyrimidin-4-yl)-5-nitrothiophene-2-carboxamide] | 790
15 | O=C(Nc1nc(-c2ccc(C(F)(F)F)cc2F)nc2c1cnn2-c1ccccc1)c1ccc([N+](=O)[O-])s1 [Compound 5-51, N-(6-(2-fluoro-4-(trifluoromethyl)phenyl)-1-phenyl-1H-pyrazolo[3,4-d]pyrimidin-4-yl)-5-nitrothiophene-2-carboxamide] | 370

Same assay, conditions: Homo sapiens, 48 h, Table 6, MTS, 2 days drug incubation, 50% reduction vs time zero, read-out: Hep3B LC50

Row | SMILES | LC50 [nM]
16 | O=C(Nc1nc(-c2ccc(F)cc2)nc2c1cnn2-c1ccc(Cl)cc1)c1ccc([N+](=O)[O-])s1 [Compound 6-48, N-(1-(4-chlorophenyl)-6-(4-fluorophenyl)-1H-pyrazolo[3,4-d]pyrimidin-4-yl)-5-nitrothiophene-2-carboxamide] | 180
17 | O=C(Nc1nc(N2CCC[C@H]2CO)nc2c1cnn2-c1cccc(Cl)c1)c1ccc([N+](=O)[O-])s1 [Compound 6-31, (S)—N-(1-(3-chlorophenyl)-6(2-(hydroxymethyl)pyrrolidin-1-yl)-1H-pyrazolo[3,4-d]pyrmidin-4-yl)-5-nitrothiophene-2-carboxamide] | > 1250
18 | COc1ccc(-c2nc(NC(=O)c3ccc([N+](=O)[O-])s3)c3cnn(-c4ccc(C(C)(C)C)cc4)c3n2)cn1 [Compound 6-82, N-(1-(4-(tert-butyl)phenyl)-6-(6-methoxypyridin-3-yl)-1H-pyrazolo[3,4-d]pyrimidin-4-yl)-5-nitrothiophene-2-carboxamide] | 380
19 | CCOC(=O)[C@@H]1CCCN1c1nc(NC(=O)c2ccc([N+](=O)[O-])s2)c2cnn(-c3ccc(F)cc3)c2n1 [Compound 6-101, ethyl (1-(4-fluorophenyl)-4-(5-nitrothiophene-2-carboxamido)-1H-pyrazolo[3,4-d]pyrimidin-6-yl)-L-prolinate] | > 1250
20 | CCOCCOc1ccc(-c2nc(NC(=O)c3ccc([N+](=O)[O-])s3)c3cnn(-c4ccc(Cl)cc4)c3n2)cn1 [Compound 6-52, N-(1-(4-chlorophenyl)-6-(6-(2-ethoxyethoxy)pyridin-3-yl)-1H-pyrazolo[3,4-d]pyrimidin-4-yl)-5-nitrothiophene-2-carboxamide] | 220
21 | CC(C)(C)c1ccc(-n2ncc3c(NC(=O)c4ccc([N+](=O)[O-])s4)nc(N4CCCC4)nc32)cc1 [Compound 6-62, N-(1-(4-(tert-butyl)phenyl)-6-(pyrrolidin-1-yl)-1H-pyrazolo[3,4-d]pyrimidin-4-yl)-5-nitrothiophene-2-carboxamide] | 710
22 | O=C(Nc1nc(-c2ccc(N3CCOCC3)nc2)nc2c1cnn2-c1ccc(F)cc1)c1ccc([N+](=O)[O-])s1 [Compound 6-141, N-(1-(4-fluorophenyl)-6-(6-morpholinopyridin-3-yl)-1H-pyrazolo[3,4-d]pyrimidin-4-yl)-5-nitrothiophene-2-carboxamide] | 420
23 | CCOCCOCCOC[C@@H]1CCCN1c1nc(NC(=O)c2ccc([N+](=O)[O-])s2)c2cnn(-c3ccc(C(C)(C)C)cc3)c2n1 [Compound 6-72, (S)—N-(1-(4-(tert-butyl)phenyl)-6-(2-((2-(2-ethoxyethoxy)ethoxy)methyl)pyrrolidin-1-yl)-1H-pyrazolo[3,4-d]pyrimidin-4-yl)-5-nitrothiophene-2-carboxamide] | 670

Same assay, conditions: Homo sapiens, 48 h, Table 8, MTS, 2 days drug incubation, 50% reduction vs time zero, read-out: Hep3B LC50

Row | SMILES | LC50 [nM]
24 | CC(C)(C)C(=O)N1CC[C@H](n2ncc3c(NC(=O)c4ccc([N+](=O)[O-])s4)nc(-c4ccc(F)nc4)nc32)C1 [Compound 8-4, (S)—N-(6-(6-fluoropyridin-3-yl)-1-(1-pivaloylpyrrolidin-3-yl)-1H-pyrazolo[3,4-d]pyrimidin-4-yl)-5-nitrothiophene-2-carboxamide] | 1490
25 | O=C(Nc1nc(-c2ccc(F)nc2)nc2c1cnn2C1CCCC1)c1ccc([N+](=O)[O-])s1 [Compound 8-8, N-(1-cyclopentyl-6-(6-fluoropyridin-3-yl)-1H-pyrazolo[3,4-d]pyrimidin-4-yl)-5-nitrothiophene-2-carboxamide] | 1170
26 | CCOC(=O)N1CC[C@@H](n2ncc3c(NC(=O)c4ccc([N+](=O)[O-])s4)nc(-c4ccc(F)nc4)nc32)C1 [Compound 8-6, ethyl (R)-3-(6-(6-fluoropyridin-3-yl)-4-(5-nitrothiophene-2-carboxamido)-1H-pyrazolo[3,4-d]pyrimidin-1-yl)pyrrolidine-1-carboxylate] | > 2000

Same assay, conditions: Homo sapiens, 48 h, Table 10, MTS, 2 days drug incubation, 50% reduction vs time zero, read-out: Hep3B LC50

Row | SMILES | LC50 [nM]
27 | COc1ccc(-c2nc(NC(=O)c3ccc([N+](=O)[O-])s3)c3cnn(C4CCCCC4)c3n2)cn1 [Compound 10-21, N-(1-cyclohexyl-6-(6-methoxypyridin-3-yl)-1H-pyrazolo[3,4-d]pyrimidin-4-yl)-5-nitrothiophene-2-carboxamide] | 1120
28 | CC(=O)c1ccc(-c2nc(NC(=O)c3ccc([N+](=O)[O-])s3)c3cnn(C4CCCCC4)c3n2)cc1 [Compound 10-28, N-(6-(4-acetylphenyl)-1-cyclohexyl-1H-pyrazolo[3,4-d]pyrimidin-4-yl)-5-nitrothiophene-2-carboxamide] | 1930
29 | CC1(C)CCC(n2ncc3c(NC(=O)c4ccc([N+](=O)[O-])s4)nc(-c4ccc(Cl)cc4F)nc32)CC1 [Compound 10-65, N-(6-(4-chloro-2-fluorophenyl)-1-(4,4-dimethylcyclohexyl)-1H-pyrazolo[3,4-d]pyrimidin-4-yl)-5-nitrothiophene-2-carboxamide] | 580
